According to US20220380432A1, “Acylated Calcitonin Mimetics” (KeyBioscience AG, priority 2018, published 2022):
Numbered stars: 1 amine (or outer) side, 2 acyl side, 3 side chain; on linkers, the order of the positions; unused ones are H or OH. Bridge positions count the residues as written; N and C are the ends. Square brackets hold non-standard residues; d marks the D form. Side chains are listed from the residue outwards. Ends that are not written are not given here. Peptide text beside a SMILES is read from it. * marks the point of attachment. C18 diacid = O=C(O)CCCCCCCCCCCCCCCCC(=O)*; γGlu = O=C(O)[C@H](CCC(=O)[*:2])N[*:1]; AEEA = NCCOCCOCC(=O)O; Aib = CC(C)(N)C(=O)O

T1: Amylin Receptor (AMY-R) (Homo sapiens (Human), UniProt P30988)
T1 sequence 1: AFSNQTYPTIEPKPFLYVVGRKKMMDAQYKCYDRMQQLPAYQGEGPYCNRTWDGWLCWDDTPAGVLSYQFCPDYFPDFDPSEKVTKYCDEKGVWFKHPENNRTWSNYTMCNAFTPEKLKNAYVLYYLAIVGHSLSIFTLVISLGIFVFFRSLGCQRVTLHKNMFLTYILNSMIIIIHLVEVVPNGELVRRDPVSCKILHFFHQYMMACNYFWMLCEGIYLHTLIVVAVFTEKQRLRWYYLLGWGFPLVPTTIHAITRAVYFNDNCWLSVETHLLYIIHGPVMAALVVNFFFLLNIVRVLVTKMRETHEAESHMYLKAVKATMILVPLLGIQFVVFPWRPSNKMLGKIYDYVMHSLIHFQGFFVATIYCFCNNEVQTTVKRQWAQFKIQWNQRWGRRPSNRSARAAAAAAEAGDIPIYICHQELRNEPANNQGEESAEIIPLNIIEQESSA
T1 sequence 2: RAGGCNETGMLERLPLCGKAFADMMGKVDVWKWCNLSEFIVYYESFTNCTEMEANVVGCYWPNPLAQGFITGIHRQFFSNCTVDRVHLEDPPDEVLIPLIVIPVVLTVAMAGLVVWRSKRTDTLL

T2: Calcitonin Receptor (CTR) (Homo sapiens (Human), UniProt P30988)
T2 sequence: T1 sequence 1

B1: KBP-377 (peptide)
peptide: Ac-CSNLSTCMLGRLSQDLHRLQTYPKTDVGANAPK
modifications: not fully specified (residue 33); ends and bridges not checked
B2: KBP-372 (peptide)
peptide: Ac-CSNLSTCVLGKLSQELHKLQTYPRTDVGANAP-NH2
modifications: not fully specified (residue 11); ends and bridges not checked
B3: KBP-374 (peptide)
peptide: Ac-CSNLSTCVLGKLSQELHKLQTYPRTDVGANAPK
modifications: not fully specified (residue 33); ends and bridges not checked

What was measured:
20 week HFD SD rats = experiment: Single dose food intake and body weight test in HFD SD rats (Examples 3, 4, 5, 8, 10, 12); assay type: in vivo, rat; details: for Food Intake ΔFOOD Sustained Attenuation (4 nmol/kg) Hours: Table 4.4: acylation linkers, backbone KBP-066, single s.c. dose 4 nmol/kg, HFD SD rats; for Food Intake ΔFOOD Sustained Attenuation (36 nmol/kg) Hours: 36 nmol/kg single dose
From the text: In the animal model studies, 12 week healthy Sprague Dawley (SD) rats were used to assess the potency of the acylated KBPs. In some examples they were fed normal chow during prior and during the tests, whereas in other examples, the 12 week healthy SD rats were fed high fat diet (HFD) for eight weeks prior to the test and for the duration of the test.
Rats were single caged four days prior to the test. Rats were randomized by weight into eleven groups (Vehicle (0.9% NaCl), KBPs (doses: 36 nmol/kg (150-157 μg/kg)). They were fasted overnight and then treated with a single dose of peptide or vehicle in the morning using subcutaneous administration. Food intake was monitored in the following intervals (0-4 hours, 4-24 hours, 24-48 hours . . . 144-168 hours). Body weight was measured at baseline and every 24 hours post s.c injection.
Rats were single caged four days prior to the test. Rats were randomized by weight into eleven groups (Vehicle (0.9% NaCl), KBPs (doses: 4 nmol/kg (^17 μg/kg), 12 nmol/kg (^50 μg/kg) or 36 nmol/kg ([…])). They were fasted overnight and then treated with a single dose of peptide or vehicle in the morning using subcutaneous administration. Food intake was monitored in the following intervals (0-4 hours, 4-24 hours, 24-48 hours . . . 144-168 hours). Body weight was measured at baseline and every 24 hours post s.c injection.
Single high dose effect of A11/3 acylated variants of KBP-042 and KBP-066 on food intake and body weight in 20 week HFD SD rats. Rats were single caged four days prior to the test. Rats were randomized by weight into eleven groups (Vehicle (0.9% NaCl), KBPs (doses: 300 nmol/kg (^1000 μg/kg)).
The rats were fasted overnight and then treated with a single dose of peptide or vehicle in the morning using subcutaneous administration. Food intake was monitored in the following intervals (0-4 hours, 4-24 hours, 24-48 hours . . . […]). Body weight was measured at baseline and every 24 hours post s.c injection.
Rats were single caged four days prior to the test. Rats were randomized by weight into eight groups (Vehicle (0.9% NaCl), KBPs (doses: 3 nmol/kg (^10-11 μg/kg)). They were fasted overnight and then treated with a single dose of peptide or vehicle in the morning using subcutaneous administration. Food intake was monitored in the following intervals (0-4 hours, 4-24 hours, 24-48 hours, 48-72 hours, and 72-96 hours). Body weight was measured at baseline and at 4 hour, 24 hours, 48 hours, 72 hours and 96 hours post s.c injection.
Rats were single caged four days prior to the test. Rats were randomized by weight into eight groups (Vehicle (0.9% NaCl), KBPs (doses: 4 nmol/kg (^10-11 μg/kg)). They were fasted overnight and then treated with a single dose of peptide or vehicle in the morning using subcutaneous administration. Food intake was monitored in the following intervals (0-4 hours, 4-24 hours, 24-48 hours, 48-72 hours, and 72-96 hours). Body weight was measured at baseline and at 4 hour, 24 hours, 48 hours, 72 hours and 96 hours post s.c. injection. Two backbones were tested, KBP-066 and KBP-021.
Rats were single caged four days prior to the test. Rats were randomized by weight into eight groups (Vehicle (0.9% NaCl), KBPs (doses: 4 nmol/kg (^13-14 μg/kg)). They were fasted overnight and then treated with a single dose of peptide or vehicle in the morning using subcutaneous administration. Food intake was monitored in the following intervals (0-4 hours, 4-24 hours, 24-48 hours, 48-72 hours, and 72-96 hours). Body weight was measured at baseline and at 4 hour, 24 hours, 48 hours, 72 hours and 96 hours post s.c injection.

[1] = Thioflavin T (ThT) fibrillation screening assay; assay type: physicochemical; details: for Peptide Fibrillation Thioflavin T ΔFluorescence 18 h Assay Score: Table 4.4: acylation linkers, backbone KBP-066, tier from 18 h fluorescence signal, 37° C.
Description: Thioflavin T (T3516, Sigma). Assay stock ThT is prepared as a 10 mM solution in 5 mM sodium phosphate pH 7.2. Aliquots are stored, protected from light, at −20° C. Stock ThT is thawed and diluted just prior to use.
For the tested calcitonin mimetics (hereinafter referred to as “acylated KBPs” or simply “KBPs”), final buffer conditions are 10 mM Tris-HCl pH 7.5.
The final peptide concentration in the wells should be 100-200 μM, and the final ThT concentration should be 4 μM. ThT is added last (10 μL).
Thioflavin T assays were also conducted. Thioflavin T (ThT) is a dye widely used for the detection of amyloid fibrils. In the presence of fibrils, ThT has an excitation maximum at 450 nm and enhanced emission at 480 nm, whereas ThT is essentially non-fluorescent at these wavelengths when not bound to amyloid fibrils.
Thus, ThT in combination with a fluorescent plate reader is an ideal tool for screening large numbers of in vitro samples for the presence of amyloid fibrils. […]
The plate is loaded into a fluorescent plate reader, such as a SpectraMax with SoftMax Pro 7.0.2 software, and the template set to 37° C. with excitation wavelength at 450 nm and emission wavelength at 480 nm.
Plate reader should measure fluorescence every 10 minutes for 24 hours with a five-second plate shake before the first read and a three-second plate shake before all other reads. Alternatively, the plate is read after the following incubation times; 0, 1, 2, 4 and 24 hours.
Plot relative fluorescence units (RFU) as a function of time. Fibrillation is determined as an increase in RFU over baseline as described by Nielsen et. al.
In this filing four fibrillations tiers have been defined based on the 18 h fluorescence signal to get a single output that reflects the peptides fibrillation potential: None=<1000 RFU, Low=1000-3000 RFU, Medium=3000-10000, High=>10000

Amylin Receptor (AMY-R) = target: T1, Amylin Receptor (AMY-R); experiment: cell-based or functional assay
[2] = target: T2, Calcitonin Receptor (CTR); experiment: cell-based or functional assay

| Molecule | Food Intake ΔFOOD Sustained Attenuation (36 nmol/kg) Hours (20 week HFD SD rats) | β-arrestin Fold Recruitment EC50 values (10^-09 M) (Amylin Receptor (AMY-R)) | β-arrestin Fold Recruitment EC50 values (10^-9 M) [2] | β-arrestin Prolonged CTR response (10 nM) tAUC value 0-72 h [2] | further results |
| --- | --- | --- | --- | --- | --- |
| CC(=O)N[C@H]1CSSC[C@@H](C(=O)NC(C)(C)C(=O)N[C@@H](CC(C)C)C(=O)NCC(=O)N[C@@H](CCCCNC(=O)COCCOCCNC(=O)CC[C@H](NC(=O)CCCCCCCCCCCCCCCCC(=O)O)C(=O)O)C(=O)N[C@@H](CC(C)C)C(=O)N[C@@H](CO)C(=O)N[C@@H](CCC(N)=O)C(=O)N[C@@H](CC(=O)O)C(=O)N[C@@H](CC(C)C)C(=O)N[C@@H](Cc2c[nH]cn2)C(=O)N[C@@H](CCCNC(=N)N)C(=O)N[C@@H](CC(C)C)C(=O)N[C@@H](CCC(N)=O)C(=O)N[C@H](C(=O)N[C@@H](Cc2ccc(O)cc2)C(=O)N2CCC[C@H]2C(=O)N[C@@H](CCCCN)C(=O)N[C@H](C(=O)N[C@@H](CC(=O)O)C(=O)N[C@H](C(=O)NCC(=O)N[C@@H](C)C(=O)N[C@@H](CC(N)=O)C(=O)N[C@@H](C)C(=O)N2CCC[C@H]2C(N)=O)C(C)C)[C@@H](C)O)[C@@H](C)O)NC(=O)[C@H]([C@@H](C)O)NC(=O)[C@H](CO)NC(=O)[C@H](CC(C)C)NC(=O)[C@H](CC(N)=O)NC(=O)[C@H](CO)NC1=O [KBP-384] (Ac-CSNLSTC[Aib]LGK([AEEA-γGlu-C18 diacid])LSQDLHRLQTYPKTDVGANAP-NH2; disulfide 1-7 (inferred)) |  |  |  |  | Food Intake ΔFOOD Sustained Attenuation (4 nmol/kg) Hours (20 week HFD SD rats): 72 h; fibrillation tier (score in the ThT assay) ([1]; 18 h fluorescence signal): low; Peptide Fibrillation Thioflavin T ΔFluorescence 18 h Assay Score [1]: Low (Low=1000-3000 RFU) |
| CC(=O)N[C@H]1CSSC[C@@H](C(=O)NC(C)(C)C(=O)N[C@@H](CC(C)C)C(=O)NCC(=O)N[C@@H](CCCCNC(=O)COCCOCCNC(=O)COCCOCCNC(=O)COCCOCCNC(=O)CC[C@H](NC(=O)CCCCCCCCCCCCCCCCC(=O)O)C(=O)O)C(=O)N[C@@H](CC(C)C)C(=O)N[C@@H](CO)C(=O)N[C@@H](CCC(N)=O)C(=O)N[C@@H](CC(=O)O)C(=O)N[C@@H](CC(C)C)C(=O)N[C@@H](Cc2c[nH]cn2)C(=O)N[C@@H](CCCNC(=N)N)C(=O)N[C@@H](CC(C)C)C(=O)N[C@@H](CCC(N)=O)C(=O)N[C@H](C(=O)N[C@@H](Cc2ccc(O)cc2)C(=O)N2CCC[C@H]2C(=O)N[C@@H](CCCCN)C(=O)N[C@H](C(=O)N[C@@H](CC(=O)O)C(=O)N[C@H](C(=O)NCC(=O)N[C@@H](C)C(=O)N[C@@H](CC(N)=O)C(=O)N[C@@H](C)C(=O)N2CCC[C@H]2C(N)=O)C(C)C)[C@@H](C)O)[C@@H](C)O)NC(=O)[C@H]([C@@H](C)O)NC(=O)[C@H](CO)NC(=O)[C@H](CC(C)C)NC(=O)[C@H](CC(N)=O)NC(=O)[C@H](CO)NC1=O [KBP-385] (Ac-CSNLSTC[Aib]LGK([AEEA-AEEA-AEEA-γGlu-C18 diacid])LSQDLHRLQTYPKTDVGANAP-NH2; disulfide 1-7 (inferred)) |  |  |  |  | Food Intake ΔFOOD Sustained Attenuation (4 nmol/kg) Hours (20 week HFD SD rats): 72 h; Peptide Fibrillation Thioflavin T ΔFluorescence 18 h Assay Score [1]: None (None=<1000 RFU) |
| KBP-372: KBP-042 core, A11/3 acylation (Ac-CSNLSTCVLGKLSQELHKLQTYPRTDVGANAP-NH2; not fully specified (residue 11); ends and bridges not checked) | 96 h |  |  |  | protracted in vivo efficacy, high dose test (in words) (20 week HFD SD rats; single s.c. dose 300 nmol/kg): superior protracted in vivo efficacy that lasted for days |
| KBP-374: KBP-042 core with added C-terminal acylated lysine (A32 type, Table 1) (Ac-CSNLSTCVLGKLSQELHKLQTYPRTDVGANAPK; not fully specified (residue 33); ends and bridges not checked) | 72 h |  |  |  |  |
| KBP-377: KBP-089 core, A32/3 acylation (Ac-CSNLSTCMLGRLSQDLHRLQTYPKTDVGANAPK; not fully specified (residue 33); ends and bridges not checked) | 72 h |  |  |  |  |
| B1 |  | 73.1 nM | 66 nM | 1400 |  |
| B2 |  | 45.6 nM | 7.8 nM | 1300 |  |
| B3 |  | 151 nM | 49.2 nM | 1070 |  |
